Results reported in patent US20070117743A1, “New antitumoral compounds” (priority 2003, published 2007).
Where a SMILES comes first, the peptide text is derived from it. Bridges are numbered along the chain shown (N, C = ends). [ ]: non-standard residue; d: D form. The star is where a group is joined. d(aIle) = CC[C@H](C)[C@@H](N)C(=O)O; d(aThr) = C[C@@H](O)[C@@H](N)C(=O)O; Hexanoyl(5-Me) = CC(C)CCCC(=O)*; Orn = NCCC[C@H](N)C(=O)O; Dhb = C/C=C(\N)C(=O)O

How the values were obtained:
Format in all cases: cell-based, human
A-549 = test: SRB colorimetric assay of cell growth and viability, A-549; conditions: A-549, 48 hours exposure; for GI50: read-out: GI50 A-549; for CC50: read-out: LC50 A-549
SK-MEL-28 = test: SRB colorimetric assay of cell growth and viability, SK-MEL-28; conditions: MEL-28, 48 hours exposure; for CC50: read-out: LC50 MEL-28
HT-29 = test: SRB colorimetric assay of cell growth and viability, HT-29; conditions: HT-29, 48 hours exposure; for GI50: read-out: GI50 HT-29; for CC50: read-out: LC50 HT-29
LoVo-Dox = test: SRB colorimetric assay of cell growth and viability, LoVo-Dox; conditions: LOVO-DOX, 48 hours exposure; for CC50: read-out: LC50 LOVO-DOX
Method in brief: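 48 h continuous exposure, 10 to 10^−8 μg/mL; 5×10^3 cells/well, 18 h attachment; TCA fix, 0.4% SRB, OD 490 nm. Triplicates; GI, TGI, LC derived.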

DU-145 = test: SRB colorimetric assay of cell growth and viability, DU-145; conditions: DU-145; 48 hours exposure
LNCaP = test: SRB colorimetric assay of cell growth and viability, LNCaP; conditions: LN-caP, 48 hours exposure; for CC50: read-out: LC50 LN-caP
SK-BR-3 = test: SRB colorimetric assay of cell growth and viability, SK-BR-3; conditions: SK-BR-3; 48 hours exposure
IGROV-1 = test: SRB colorimetric assay of cell growth and viability, IGROV-1; conditions: IGROV; 48 hours exposure
IGROV-ET = test: SRB colorimetric assay of cell growth and viability, IGROV-ET; conditions: IGROV-ET, 48 hours exposure; for CC50: read-out: LC50 IGROV-ET
HeLa = test: SRB colorimetric assay of cell growth and viability, HeLa; conditions: HELA, 48 hours exposure; for CC50: read-out: LC50 HELA
HeLa-APL = test: SRB colorimetric assay of cell growth and viability, HeLa-APL; conditions: HELA-APL, 48 hours exposure; for CC50: read-out: LC50 HELA-APL
K-562 = test: SRB colorimetric assay of cell growth and viability, K-562; conditions: K-562, 48 hours exposure; for CC50: read-out: LC50 K-562
PANC-1 = test: SRB colorimetric assay of cell growth and viability, PANC-1; conditions: PANC-1, 48 hours exposure; for CC50: read-out: LC50 PANC-1

C/C=C1\NC(=O)[C@H](Cc2ccccc2)NC(=O)[C@@H](C(C)C)NC(=O)[C@@H]([C@@H](C)CC)NC(=O)[C@H](NC(=O)[C@H](NC(=O)[C@H](CCCN)NC(=O)[C@H]2CCCN2C(=O)[C@H](NC(=O)[C@@H](NC(=O)[C@H](Cc2ccccc2)NC(=O)[C@H](NC(=O)CCCC(C)C)C(C)C)C(C)C)C(C)C)[C@@H](C)CC)[C@@H](C)OC(=O)[C@H](C(C)C)NC1=O [Compound 114, [Phe^12]-KF] ({Hexanoyl(5-Me)}-[dV]FV[dV][dP][Orn][d(aIle)][d(aThr)][d(aIle)][dV]F[Dhb]V; ester 8-C)
TGI A-549 (A-549): 3.50E−07 Molar | GI50 (A-549): 0.157 µM | CC50 (A-549): 1.52 µM | GI50 (SK-MEL-28): 0.17 µM | TGI MEL-28 (SK-MEL-28): 3.36E−07 Molar | CC50 (SK-MEL-28): 0.748 µM | TGI HT-29 (HT-29): 3.22E−07 Molar | GI50 (HT-29): 0.157 µM | CC50 (HT-29): 0.696 µM | GI50 (LoVo-Dox): 0.18 µM | TGI LOVO-DOX (LoVo-Dox): 3.94E−07 Molar | CC50 (LoVo-Dox): 4.27 µM | GI50 (DU-145): 0.18 µM | LC50 (concentration causing 50% net cell kill) (DU-145): 1.73 µM | TGI DU-145 (DU-145): 3.75E−07 Molar | GI50 (LNCaP): 0.053 µM | TGI LN-caP (LNCaP): 3.00E−07 Molar | CC50 (LNCaP): 4.7 µM | GI50 (SK-BR-3): 0.207 µM | LC50 (SK-BR-3): 6.56 µM | TGI SK-BR-3 (SK-BR-3): 4.62E−07 Molar | GI50 (IGROV-1): 0.114 µM | LC50 (concentration causing 50% net cell killing) (IGROV-1): 6.56 µM | TGI IGROV (IGROV-1): 3.10E−07 Molar | GI50 (IGROV-ET): 0.301 µM | TGI IGROV-ET (IGROV-ET): 8.40E−07 Molar | CC50 (IGROV-ET): 6.38 µM | GI50 (HeLa): 0.259 µM | TGI HELA (HeLa): 9.25E−07 Molar | CC50 (HeLa): 5.69 µM | GI50 (HeLa-APL): 0.143 µM | TGI HELA-APL (HeLa-APL): 3.49E−07 Molar | CC50 (HeLa-APL): 2.03 µM | GI50 (K-562): 0.0787 µM | TGI K-562 (K-562): 3.71E−07 Molar | CC50 (K-562): 4.03 µM | GI50 (PANC-1): 0.233 µM | TGI PANC-1 (PANC-1): 1.16E−06 Molar | CC50 (PANC-1): 6.56 µM

C/C=C1\NC(=O)[C@H](Cc2ccccc2)NC(=O)[C@@H](C(C)C)NC(=O)[C@@H]([C@@H](C)CC)NC(=O)[C@H](NC(=O)[C@H](NC(=O)[C@H](CCCN)NC(=O)[C@H]2CCCN2C(=O)[C@H](NC(=O)[C@@H](NC(=O)[C@H](CCC(=O)O)NC(=O)[C@H](NC(=O)CCCC(C)C)C(C)C)C(C)C)C(C)C)[C@@H](C)CC)[C@@H](C)OC(=O)[C@H](C(C)C)NC1=O [Compound 115, [Glu^12]-KF] ({Hexanoyl(5-Me)}-[dV]EV[dV][dP][Orn][d(aIle)][d(aThr)][d(aIle)][dV]F[Dhb]V; ester 8-C)
TGI A-549 (A-549): 6.64E−06 Molar | GI50 (A-549): 4.1 µM | CC50 (A-549): 6.64 µM | GI50 (SK-MEL-28): 6.5 µM | TGI MEL-28 (SK-MEL-28): 6.64E−06 Molar | CC50 (SK-MEL-28): 6.64 µM | TGI HT-29 (HT-29): 2.60E−06 Molar | GI50 (HT-29): 1.33 µM | CC50 (HT-29): 5.09 µM | GI50 (LoVo-Dox): 1.52 µM | TGI LOVO-DOX (LoVo-Dox): 3.00E−06 Molar | CC50 (LoVo-Dox): 5.92 µM | GI50 (DU-145): 3.25 µM | LC50 (concentration causing 50% net cell kill) (DU-145): 6.64 µM | TGI DU-145 (DU-145): 6.64E−06 Molar | GI50 (LNCaP): 1.28 µM | TGI LN-caP (LNCaP): 2.54E−06 Molar | CC50 (LNCaP): 5.01 µM | GI50 (SK-BR-3): 1.35 µM | LC50 (SK-BR-3): 6.64 µM | TGI SK-BR-3 (SK-BR-3): 3.01E−06 Molar | GI50 (IGROV-1): 1.54 µM | LC50 (concentration causing 50% net cell killing) (IGROV-1): 6.64 µM | TGI IGROV (IGROV-1): 3.59E−06 Molar | GI50 (IGROV-ET): 1.67 µM | TGI IGROV-ET (IGROV-ET): 3.12E−06 Molar | CC50 (IGROV-ET): 5.83 µM | GI50 (HeLa): 6.64 µM | TGI HELA (HeLa): 6.64E−06 Molar | CC50 (HeLa): 6.64 µM | GI50 (HeLa-APL): 2.99 µM | TGI HELA-APL (HeLa-APL): 6.64E−06 Molar | CC50 (HeLa-APL): 6.64 µM | GI50 (K-562): 6.64 µM | TGI K-562 (K-562): 6.64E−06 Molar | CC50 (K-562): 6.64 µM | GI50 (PANC-1): 6.64 µM | TGI PANC-1 (PANC-1): 6.64E−06 Molar | CC50 (PANC-1): 6.64 µM

C/C=C1\NC(=O)[C@H](Cc2ccccc2)NC(=O)[C@@H](C(C)C)NC(=O)[C@@H]([C@@H](C)CC)NC(=O)[C@H](NC(=O)[C@H](NC(=O)[C@H](CCCN)NC(=O)[C@H]2CCCN2C(=O)[C@H](NC(=O)[C@@H](NC(=O)[C@H](CCCN)NC(=O)[C@H](NC(=O)CCCC(C)C)C(C)C)C(C)C)C(C)C)[C@@H](C)CC)[C@@H](C)OC(=O)[C@H](C(C)C)NC1=O [Compound 116, [Orn^12]-KF] ({Hexanoyl(5-Me)}-[dV][Orn]V[dV][dP][Orn][d(aIle)][d(aThr)][d(aIle)][dV]F[Dhb]V; ester 8-C)
TGI A-549 (A-549): 6.71E−06 Molar | GI50 (A-549): 6.71 µM | CC50 (A-549): 6.71 µM | GI50 (SK-MEL-28): 4.32 µM | TGI MEL-28 (SK-MEL-28): 6.71E−06 Molar | CC50 (SK-MEL-28): 6.71 µM | TGI HT-29 (HT-29): 3.88E−06 Molar | GI50 (HT-29): 2.24 µM | CC50 (HT-29): 6.71 µM | GI50 (LoVo-Dox): 1.94 µM | TGI LOVO-DOX (LoVo-Dox): 3.71E−06 Molar | CC50 (LoVo-Dox): 6.71 µM | GI50 (DU-145): 3.32 µM | LC50 (concentration causing 50% net cell kill) (DU-145): 6.71 µM | TGI DU-145 (DU-145): 6.71E−06 Molar | GI50 (LNCaP): 1.54 µM | TGI LN-caP (LNCaP): 3.10E−06 Molar | CC50 (LNCaP): 6.24 µM | GI50 (SK-BR-3): 1.45 µM | LC50 (SK-BR-3): 5.51 µM | TGI SK-BR-3 (SK-BR-3): 2.82E−06 Molar | GI50 (IGROV-1): 2.05 µM | LC50 (concentration causing 50% net cell killing) (IGROV-1): 6.71 µM | TGI IGROV (IGROV-1): 3.86E−06 Molar | GI50 (IGROV-ET): 1.87 µM | TGI IGROV-ET (IGROV-ET): 3.23E−06 Molar | CC50 (IGROV-ET): 5.55 µM | GI50 (HeLa): 1.54 µM | TGI HELA (HeLa): 3.35E−06 Molar | CC50 (HeLa): 6.71 µM | GI50 (HeLa-APL): 3 µM | TGI HELA-APL (HeLa-APL): 6.71E−06 Molar | CC50 (HeLa-APL): 6.71 µM | GI50 (K-562): 0.919 µM | TGI K-562 (K-562): 2.34E−06 Molar | CC50 (K-562): 5.94 µM | GI50 (PANC-1): 6.08 µM | TGI PANC-1 (PANC-1): 6.71E−06 Molar | CC50 (PANC-1): 6.71 µM
